Data: patent US6339151B1, “Enzyme catalyzed therapeutic agents” (NewBiotics, Inc., priority 1998, dated 2002)
Blank lines part the entries; values can stand above or below the compound they belong to.

How the values were obtained:
[1] = test system: Colon Epithelium (CCD18co); test: Alamar Blue Assay; type: cell-based; conditions: Homo sapiens, CCD-18Co
[2] = test system: Skin Fibroblast (DET551); test: Alamar Blue Assay; type: cell-based
[3] = test system: Lung Epithelium (W138); test: Alamar Blue Assay; type: cell-based
[4] = test system: Breast (MCF7); test: Alamar Blue Assay; type: cell-based; conditions: Homo sapiens
[5] = test system: Breast (MDA 468); test: Alamar Blue Assay; type: cell-based
[6] = test system: Sarcoma (Saos 2); test: Alamar Blue Assay; type: cell-based; conditions: Homo sapiens
[7] = test system: Normal Cells; test: Alamar Blue Assay, mean over normal cells; type: cell-based; conditions: mean of the three normal cell types; read-out: mean IC50 (X̄)
[8] = test system: Tumor Cells; test: Alamar Blue Assay, mean over tumor cells; type: cell-based; conditions: mean of the three tumor cell lines; read-out: mean IC50 (X̄)
[9] = test system: CCD18co (normal colon epithelium); test: Crystal violet cell proliferation assay; type: cell-based, human; conditions: for IC50: Homo sapiens, CCD-18Co
Description: (§1) Two cell lines, H630R10 (Copur, et al. (1995)) and normal colon epithelial cells, CCD18co (ATCC) were used in these assays. The H630P (Copur et al. (1995)) cell line was selected for resistance to 10 μM 5-FU to give rise to H630R10. The characterization of these cell lines which expresses an elevated level of the TS enzyme. A normal colon epithelial cell type CCD18co (available from the ATCC) was used for comparison with H630R10 for sensitivity to test compounds.
(§2) The ability of the test compounds to block proliferation of cells was determined by the crystal violet procedure (Sugarman et al. (1985) and Antelman et al. (1995)).
(§3) Compounds were dissolved in dimethyl sulfoxide to a concentration of 1M. They were further diluted as necessary into DMEM cell culture medium, and subsequently into the first wells of the 96 Well microtiter plate. Each concentration was tested in triplicate on the target cell line. Compound concentrations from 1 μM to 3000 μM were tested. Cells were incubated with compound for 72 hours, the plates were washed, and the cells fixed with methanol and stained with crystal violet as described in Sugarman et al. ([…]) and Antelman, et al. (1995).

[10] = test system: H630R10 (colon cancer cell line); test: Crystal violet cell proliferation assay; type: cell-based, human; conditions: for IC50: Homo sapiens
Description: as §1, §2, §3

[11] = test system: Primary Carcinoma (UT) breast cells; conditions: 19 samples; cited from earlier work
[12] = test system: Metastatic Carcinoma (UT) breast cells; conditions: 4 samples; cited from earlier work
[13] = test system: Metastatic Carcinoma (Rx) breast cells; conditions: 10 samples; cited from earlier work
[14] = Table 6, H630R10, 72 hours, standard error less than 20%

IC50 [4]: 0.61 µM | IC50 [6]: 11.3 µM | IC50 [8]: 4.1 µM
SMILES: O=c1[nH]cc(F)c(=O)[nH]1 [5-Fluorouracil, 5-fluorouracil]
IC50 [1]: 0.2 µM | IC50 [2]: 1.1 µM | IC50 [3]: 0.4 µM | IC50 [5]: 0.4 µM | IC50 [7]: 0.57 µM

IC50 [10, 14]: 2880 ± 54.5 µM
SMILES: O=c1[nH]c(=O)n([C@H]2C[C@H](O)[C@@H](CO)O2)cc1/C=C/Br [BVDU, (E)-5-(2-bromovinyl)-2′-deoxyuridine]
IC50 ([9]; Table 6, CCD18co, 72 hours, standard error less than 20%): 2540 ± 58.2 µM | activity in the proliferation assay ([10]; CCD18co and H630R10, Table 6 line 2): little activity | difference in sensitivity of the two cell lines ([10]; CCD18co vs H630R10): no significant difference

IC50 [10, 14]: 170 ± 2.4 µM | IC50 ([10]; Table 7, H630R10 (colon cancer cell line), representative data from several assays, triplicate wells): 170 µM
SMILES: O=c1[nH]c(=O)n([C@H]2C[C@H](O)[C@@H](CO)O2)cc1F [Compound 5-FUdR, 5-fluoro-2′-deoxyuridine]
IC50 ([9]; Table 7, CCD18co (normal colon epithelium), representative data from several assays, triplicate wells): 9.5 µM | fold more sensitive CCD18co than H630-R10 ([9]; normal colon epithelial CCD18co vs H630-R10 colon tumor cells): approximately 18 fold

SMILES: COc1cccc2c1C(=O)c1c(O)c3c(c(O)c1C2=O)C[C@@](O)(C(=O)CO)C[C@@H]3O[C@H]1C[C@H](N)[C@H](O)[C@H](C)O1 [Doxorubicin, doxorubicin]
Average IC50 [11]: 0.0114 ± 0.0068 µg/mL | Average IC50 [12]: 0.036 ± 0.0263 µg/mL | Average IC50 [13]: 0.0198 ± 0.0127 µg/mL
